Measured values from ChEMBL document CHEMBL1122408, “Pyridinylpiperazines, a new class of selective alpha 2-adrenoceptor antagonists” (J Med Chem, 1983).

How the values were obtained:
[1] = target: T1, Adrenergic receptor alpha-2 (Rattus norvegicus) (UniProt P22086+P19328+P22909)
[2] = target: T2, Adrenergic receptor alpha-2 (Rattus norvegicus, UniProt P22086+P19328+P22909); assay: Presynaptic antagonistic activity against alpha-2 adrenergic receptor from rat, isolated, field-stimulated vas deferens, using clonidine as the agonist; type: functional
T2 sequence (P22086 whole entry): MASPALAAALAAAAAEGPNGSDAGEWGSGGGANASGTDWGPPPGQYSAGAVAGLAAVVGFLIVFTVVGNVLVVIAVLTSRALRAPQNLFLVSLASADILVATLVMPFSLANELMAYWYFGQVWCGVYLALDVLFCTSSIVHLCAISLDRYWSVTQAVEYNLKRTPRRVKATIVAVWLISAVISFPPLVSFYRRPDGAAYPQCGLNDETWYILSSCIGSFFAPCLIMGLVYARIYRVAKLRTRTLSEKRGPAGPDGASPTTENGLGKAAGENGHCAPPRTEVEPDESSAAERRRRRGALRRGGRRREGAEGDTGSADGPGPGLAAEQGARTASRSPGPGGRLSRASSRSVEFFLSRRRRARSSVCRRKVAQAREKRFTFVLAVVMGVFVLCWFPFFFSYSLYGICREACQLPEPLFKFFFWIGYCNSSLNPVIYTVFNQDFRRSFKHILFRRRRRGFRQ
T2 sequence (P19328 whole entry): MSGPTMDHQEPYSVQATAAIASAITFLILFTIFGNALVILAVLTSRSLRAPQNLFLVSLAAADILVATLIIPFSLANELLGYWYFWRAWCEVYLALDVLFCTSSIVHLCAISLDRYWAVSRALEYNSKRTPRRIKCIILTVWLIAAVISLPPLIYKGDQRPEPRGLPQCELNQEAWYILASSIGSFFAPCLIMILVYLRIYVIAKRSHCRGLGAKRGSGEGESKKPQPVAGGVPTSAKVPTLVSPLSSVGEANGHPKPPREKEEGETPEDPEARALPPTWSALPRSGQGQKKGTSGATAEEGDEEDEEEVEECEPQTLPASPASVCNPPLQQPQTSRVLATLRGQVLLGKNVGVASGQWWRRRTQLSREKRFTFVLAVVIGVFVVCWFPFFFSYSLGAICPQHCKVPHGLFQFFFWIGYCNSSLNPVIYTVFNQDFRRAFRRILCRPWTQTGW
T2 sequence (P22909 whole entry): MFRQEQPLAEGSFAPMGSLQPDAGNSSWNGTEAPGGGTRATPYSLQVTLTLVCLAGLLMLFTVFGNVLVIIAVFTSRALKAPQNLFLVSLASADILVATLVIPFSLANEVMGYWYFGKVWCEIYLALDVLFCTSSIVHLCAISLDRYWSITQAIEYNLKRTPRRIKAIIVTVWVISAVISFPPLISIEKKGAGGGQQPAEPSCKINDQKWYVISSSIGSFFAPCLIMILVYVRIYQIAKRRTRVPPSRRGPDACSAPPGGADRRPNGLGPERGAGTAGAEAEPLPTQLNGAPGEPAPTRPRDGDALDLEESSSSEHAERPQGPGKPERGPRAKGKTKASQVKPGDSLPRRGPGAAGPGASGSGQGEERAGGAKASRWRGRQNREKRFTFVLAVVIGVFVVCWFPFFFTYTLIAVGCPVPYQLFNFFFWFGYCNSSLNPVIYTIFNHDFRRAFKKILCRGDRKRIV

[3] = target: T3, Alpha-2A adrenergic receptor (Bos taurus, UniProt Q28838); assay: Binding activity against alpha-2 adrenergic receptor from calf cerebral cortex, using [3H]clonidine as the radioligand; type: tissue-based
T3 sequence (Q28838 whole entry): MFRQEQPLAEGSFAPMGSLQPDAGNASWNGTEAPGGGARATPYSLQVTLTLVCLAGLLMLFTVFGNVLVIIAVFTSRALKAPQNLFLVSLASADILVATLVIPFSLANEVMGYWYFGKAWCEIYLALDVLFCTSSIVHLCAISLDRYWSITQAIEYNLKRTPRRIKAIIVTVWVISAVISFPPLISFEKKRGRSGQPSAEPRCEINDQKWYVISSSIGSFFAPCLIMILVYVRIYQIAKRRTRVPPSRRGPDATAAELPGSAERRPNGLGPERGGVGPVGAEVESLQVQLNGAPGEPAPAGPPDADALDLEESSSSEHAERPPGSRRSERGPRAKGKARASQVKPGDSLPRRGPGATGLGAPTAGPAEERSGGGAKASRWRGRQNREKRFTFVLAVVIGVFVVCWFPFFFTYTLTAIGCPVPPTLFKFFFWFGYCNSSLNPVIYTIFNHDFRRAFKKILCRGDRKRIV

[4] = target: T4, Alpha-1A adrenergic receptor (Bos taurus, UniProt P18130); assay: Binding activity against alpha-1 adrenergic receptor from calf cerebral cortex, using [3H]-prazosin as the radioligand; type: tissue-based
T4 sequence (P18130 whole entry): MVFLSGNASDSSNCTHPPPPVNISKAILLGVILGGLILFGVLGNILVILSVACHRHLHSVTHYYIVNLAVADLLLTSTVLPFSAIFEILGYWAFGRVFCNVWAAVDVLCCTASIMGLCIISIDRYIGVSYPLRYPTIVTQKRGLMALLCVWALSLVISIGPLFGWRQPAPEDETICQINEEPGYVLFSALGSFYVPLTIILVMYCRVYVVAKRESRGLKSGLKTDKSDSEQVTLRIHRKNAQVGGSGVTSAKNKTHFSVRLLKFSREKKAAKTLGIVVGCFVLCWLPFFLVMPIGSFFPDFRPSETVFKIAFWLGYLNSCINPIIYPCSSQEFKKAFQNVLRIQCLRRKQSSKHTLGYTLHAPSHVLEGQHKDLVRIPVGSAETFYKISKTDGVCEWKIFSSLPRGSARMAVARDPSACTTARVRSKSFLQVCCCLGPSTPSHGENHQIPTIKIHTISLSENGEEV

[5] = target: T5, Adrenergic receptor alpha-1 (Rattus norvegicus, UniProt P15823+P23944+P43140); assay: Presynaptic antagonistic activity against alpha-1 adrenergic receptor from rat, isolated, field-stimulated vas deferens, using methoxamine as the agonist; type: functional
T5 sequence (P15823 whole entry): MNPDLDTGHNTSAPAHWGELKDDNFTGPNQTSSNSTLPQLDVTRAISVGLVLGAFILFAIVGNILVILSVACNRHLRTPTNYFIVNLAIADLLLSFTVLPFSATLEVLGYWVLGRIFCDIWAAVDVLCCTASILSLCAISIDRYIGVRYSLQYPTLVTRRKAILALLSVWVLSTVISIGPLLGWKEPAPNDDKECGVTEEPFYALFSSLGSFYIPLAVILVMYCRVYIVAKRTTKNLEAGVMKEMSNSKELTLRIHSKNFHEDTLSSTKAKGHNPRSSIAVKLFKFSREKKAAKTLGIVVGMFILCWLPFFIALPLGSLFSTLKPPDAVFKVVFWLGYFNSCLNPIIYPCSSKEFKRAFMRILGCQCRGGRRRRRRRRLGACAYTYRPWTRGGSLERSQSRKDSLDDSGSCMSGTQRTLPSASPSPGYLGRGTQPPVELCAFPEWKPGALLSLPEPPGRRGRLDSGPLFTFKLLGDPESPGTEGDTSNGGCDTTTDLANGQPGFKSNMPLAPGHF
T5 sequence (P23944 whole entry): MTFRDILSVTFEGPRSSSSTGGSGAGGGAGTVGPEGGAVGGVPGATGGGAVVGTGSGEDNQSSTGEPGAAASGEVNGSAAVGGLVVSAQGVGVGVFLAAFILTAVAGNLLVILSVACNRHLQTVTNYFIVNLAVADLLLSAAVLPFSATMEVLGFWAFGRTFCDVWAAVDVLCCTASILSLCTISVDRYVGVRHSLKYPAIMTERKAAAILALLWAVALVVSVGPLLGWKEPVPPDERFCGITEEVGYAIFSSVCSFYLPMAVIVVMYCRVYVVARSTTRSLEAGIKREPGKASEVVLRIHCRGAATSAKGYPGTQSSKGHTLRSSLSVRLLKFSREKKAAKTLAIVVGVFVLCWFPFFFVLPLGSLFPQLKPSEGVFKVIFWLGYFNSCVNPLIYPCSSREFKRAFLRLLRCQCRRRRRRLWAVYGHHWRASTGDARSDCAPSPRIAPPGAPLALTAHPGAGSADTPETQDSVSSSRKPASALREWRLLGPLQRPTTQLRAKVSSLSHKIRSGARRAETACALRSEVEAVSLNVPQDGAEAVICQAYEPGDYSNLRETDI
T5 sequence (P43140 whole entry): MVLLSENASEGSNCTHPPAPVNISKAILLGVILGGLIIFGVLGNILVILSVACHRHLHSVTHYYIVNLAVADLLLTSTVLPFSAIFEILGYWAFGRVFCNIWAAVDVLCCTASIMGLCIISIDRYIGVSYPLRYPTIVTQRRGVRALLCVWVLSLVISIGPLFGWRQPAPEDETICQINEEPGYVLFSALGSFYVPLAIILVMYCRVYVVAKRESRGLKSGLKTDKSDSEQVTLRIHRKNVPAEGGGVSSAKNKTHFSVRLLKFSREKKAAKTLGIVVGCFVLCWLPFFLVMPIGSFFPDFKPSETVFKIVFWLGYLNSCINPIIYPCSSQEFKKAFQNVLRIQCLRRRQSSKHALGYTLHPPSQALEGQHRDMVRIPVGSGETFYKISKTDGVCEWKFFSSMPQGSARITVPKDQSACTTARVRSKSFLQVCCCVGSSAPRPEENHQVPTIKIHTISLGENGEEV

[6] = target: T1, Adrenergic receptor alpha-2 (Rattus norvegicus); assay: Antagonistic activity against central alpha-2 adrenergic receptor, in anesthetized rats, by reversing the established clonidine-induced mydriasis; 0.3-1; type: functional

COC(=O)[C@H]1[C@H]2C[C@H]3c4[nH]c5ccccc5c4CCN3C[C@H]2CC[C@@H]1O
AD50 [1]: 1.1 mg/kg

NC(=O)c1cccnc1N1CCNCC1
pA2 [2]: < 5.8 | Ki [3]: 5200 nM | Ki [4]: 62000 nM | AD50 [1]: > 3 mg/kg

Clc1ccccc1N1CCNCC1
pA2 [2]: 6 | pA2 [5]: 6.5 | Ki [3]: 25 nM | Ki [4]: 160 nM | AD50 [1]: 1.03 mg/kg

Clc1cccc(N2CCNCC2)n1
pA2 [2]: 6.8 | pA2 [5]: 6 | AD50 [6]: 0.3 mg/kg | Ki [4]: 375 nM

c1ccc2c(c1)OCC(C1=NCCN1)O2 (stereo unspecified) [IDAZOXAN]
Ki [3]: 1.5 nM | Ki [4]: 500 nM | AD50 [1]: 0.05 mg/kg

Clc1ccc(N2CCNCC2)nc1
pA2 [2]: < 5.8 | Ki [3]: 1340 nM | Ki [4]: 900 nM | AD50 [1]: > 3 mg/kg

CN1CCN(c2ncccc2Br)CC1
pA2 [2]: 7.6 | pA2 [5]: 6.5 | Ki [4]: 160 nM | AD50 [1]: 0.74 mg/kg

O=[N+]([O-])c1cccnc1N1CCNCC1
pA2 [2]: 6.3 | Ki [3]: 26 nM | Ki [4]: 3800 nM | AD50 [1]: 1.53 mg/kg

Clc1cnc(N2CCNCC2)c(Cl)c1
pA2 [2]: < 5.8 | Ki [3]: 500 nM | Ki [4]: 800 nM | AD50 [1]: > 3 mg/kg

Nc1cccnc1N1CCNCC1
pA2 [2]: < 5.8 | Ki [3]: 440 nM | Ki [4]: 31000 nM | AD50 [1]: > 3 mg/kg

CN1CCN(c2ncccc2Cl)CC1
pA2 [2]: 7.4 | pA2 [5]: 6.5 | Ki [3]: 2.7 nM | Ki [4]: 215 nM | AD50 [1]: 0.56 mg/kg

c1ccc(N2CCNCC2)nc1
pA2 [2]: 6.4 | pA2 [5]: 5.7 | Ki [4]: 2400 nM | AD50 [1]: 1.28 mg/kg

COC(=O)[C@@H]1[C@H]2C[C@H]3c4[nH]c5ccccc5c4CCN3C[C@@H]2CC[C@@H]1O
AD50 [1]: 1.04 mg/kg

Fc1cccnc1N1CCNCC1
pA2 [2]: 6.9 | pA2 [5]: 5.18 | Ki [3]: 8.2 nM | Ki [4]: 2500 nM | AD50 [1]: 0.23 mg/kg

Clc1cccnc1N1CCN(Cc2ccccc2)CC1
pA2 [2]: 6.5 | pA2 [5]: 7 | Ki [3]: 120 nM | Ki [4]: 700 nM | AD50 [1]: > 3 mg/kg

Clc1cccnc1N1CCNCC1
pA2 [2]: 6.9 | pA2 [5]: 5.7 | Ki [4]: 1800 nM | AD50 [1]: 0.44 mg/kg

CN1CCN(c2ncccc2F)CC1
pA2 [2]: 7.4 | pA2 [5]: 6.2 | Ki [3]: 5 nM | Ki [4]: 490 nM | AD50 [1]: 0.67 mg/kg

FC(F)(F)c1cccnc1N1CCNCC1
pA2 [2]: < 5.8 | Ki [3]: 97 nM | Ki [4]: 2850 nM | AD50 [1]: 3.63 mg/kg

N#Cc1cccnc1N1CCNCC1
pA2 [2]: 6.1 | Ki [3]: 14 nM | Ki [4]: 2000 nM | AD50 [1]: 1.07 mg/kg

Cc1ccnc(N2CCNCC2)c1Cl
pA2 [2]: 5.9 | Ki [3]: 74 nM | Ki [4]: 4300 nM | AD50 [1]: 14 mg/kg

CN1CCN2c3ccccc3Cc3ccccc3C2C1 (stereo unspecified)
AD50 [1]: > 10 mg/kg

Clc1cnccc1N1CCNCC1
pA2 [2]: < 5.8 | Ki [3]: 390 nM | Ki [4]: 6800 nM | AD50 [1]: > 3 mg/kg

Ic1cccnc1N1CCNCC1
pA2 [2]: 6.2 | pA2 [5]: 6 | Ki [4]: 1600 nM | AD50 [1]: 1.95 mg/kg

Brc1cccnc1N1CCNCC1
pA2 [2]: 6.6 | pA2 [5]: 5.8 | Ki [4]: 1480 nM | AD50 [1]: 0.68 mg/kg
